According to US20110059035A1, “COMPOSITIONS BASED ON POLYMER/HYDROGEN PEROXIDE COMPLEXES AND USES THEREOF” (L"OREAL, priority 2008, published 2011):

What was measured:
[1] = Activator selection: pH of Peroxydone K-30 dispersion in water after addition of activator; format: physicochemical; settings: for Associated pH: at the minimum amount of activator, 11 g of Peroxydone K-30 in 75 g of water; for Minimum amount in order to reach a pH > 9 or a plateau pH if pH < 9: initial amount of 11 g of Peroxydone K-30, i.e. 2 g of H2O2, in 75 g of water
Experimental: In the case of a PVP-H2O2 complex, the following protocol can be used to select the activators. A dispersion of 11 g of Peroxydone K-30® (ISP) in 75 g of water is produced, to which increasing amounts of activator are added. pH is measured immediately after each addition. The activator is added in excess until the activator/H2O2 ratio by weight reaches 10.

[2] = In vitro bleaching test on a dye (lightening activity); settings: H2O2 4% or PVP-H2O2 22% (eq. 4% H2O2), 1 g in 19 g dye solution, pH 10.7, OD 630 nm
Experimental: Protocol for in vitro bleaching test Dye solution or “solution X” is a solution of disodium salt of brilliant blue FCF (CI: 42090) from LCW (Sensient). The dye solution is prepared as follows: 15 mg of dye powder are dissolved in 50 ml of borate buffer pH 10.7 and then again diluted to 1/50th. […] After stirring the mixture in the dark for 10 min, the dispersion is filtered (0.45 μm cellulose filter) and the optical density is measured over the range from 400 to 800 nm at 25° C. […] The decoloring effectiveness is reflected by the bleaching percentage at t=10 min (i.e. [ODt10 min (mixture)−ODt10 min (dye)/ODt0 (dye)]×100.

Associated pH [1]	Minimum amount in order to reach a pH > 9 or a plateau pH if pH < 9 [1]	Structure (SMILES)	bleaching percentage at t=10 min ([2]; dilution medium PEG-8)	bleaching percentage at t=10 min ([2]; dilution medium butylene glycol)	bleaching percentage at t=10 min ([2]; dilution medium ethanol)	bleaching percentage at t=10 min ([2]; dilution medium glycerol)
9.3	0.05 g	[Ca+2].[O-][O-] [Calcium peroxide]	–	–	–	–
–	–	OO [Product H2O2, hydrogen peroxide]	61%	63%	72%	27%
8.1	0.9 g	O=C([O-])O.[Na+] [Sodium bicarbonate]	–	–	–	–
9.8	0.11 g	O=[Si]([O-])[O-].[Na+].[Na+] [Sodium metasilicate]	–	–	–	–
